ChEMBL document CHEMBL4251572, “Novel aminopyrimidinyl benzimidazoles as potentially antimicrobial agents: Design, synthesis and biological evaluation” (Eur J Med Chem, 2018)
Values after ≈ are worked out from the molar mass of the structure shown.

Experiments:
[1] = test system: Staphylococcus aureus; test: Antibacterial activity against Staphylococcus aureus ATCC 25923 after 24 hrs by micro broth dilution assay; format: functional; settings: ATCC 25923, 24 h
[2] = test system: Staphylococcus aureus; test: Antibacterial activity against methicillin-resistant Staphylococcus aureus N315 after 24 hrs by micro broth dilution assay; format: functional; settings: N315, 24 h
[3] = test system: Bacillus subtilis; test: Antibacterial activity against Bacillus subtilis after 24 hrs by micro broth dilution assay; format: functional
[4] = test system: Micrococcus luteus; test: Antibacterial activity against Micrococcus luteus ATCC4698 after 24 hrs by micro broth dilution assay; format: functional; settings: ATCC4698, 24 h
[5] = test system: Bacillus; test: Antibacterial activity against Bacillus proteus ATCC 13315 after 24 hrs by micro broth dilution assay; format: functional; settings: ATCC 13315, 24 h
[6] = test system: Escherichia coli; test: Antibacterial activity against Escherichia coli DH52 after 24 hrs by micro broth dilution assay; format: functional; settings: DH52, 24 h
[7] = test system: Pseudomonas aeruginosa; test: Antibacterial activity against Pseudomonas aeruginosa after 24 hrs by micro broth dilution assay; format: functional
[8] = test system: Salmonella typhi; test: Antibacterial activity against Bacillus typhi after 24 hrs by micro broth dilution assay; format: functional, Salmonella enterica subsp. enterica serovar Typhi; settings: Salmonella enterica
[9] = test system: Escherichia coli; test: Antibacterial activity against Escherichia coli JM109 after 24 hrs by micro broth dilution assay; format: functional; settings: JM109, 24 h
[10] = test system: Shigella dysenteriae; test: Antibacterial activity against Shigella dysenteriae after 24 hrs by micro broth dilution assay; format: functional
[11] = test system: Candida albicans; test: Antifungal against Candida albicans ATCC 76615 after 24 hrs by two fold serial dilution method; format: functional; settings: ATCC 76615, 24 h
[12] = test system: Pichia norvegensis; test: Antifungal against Candida mycoderma after 24 hrs by two fold serial dilution method; format: functional
[13] = test system: Cyberlindnera jadinii; test: Antifungal against Candida utilis after 24 hrs by two fold serial dilution method; format: functional; settings: Williopsis jadinii
[14] = test system: Saccharomyces cerevisiae; test: Antifungal against Saccharomyces cerevisiae after 24 hrs by two fold serial dilution method; format: functional
[15] = test system: Aspergillus flavus; test: Antifungal against Aspergillus flavus after 24 hrs by two fold serial dilution method; format: functional

SMILES | MIC [1] [µg/mL] | MIC [2] [µg/mL] | MIC [3] [µg/mL] | MIC [4] [µg/mL] | MIC [5] [µg/mL] | MIC [6] [µg/mL] | MIC [7] [µg/mL] | MIC [8] [µg/mL] | MIC [9] [µg/mL] | MIC [10] [µg/mL] | MIC [11] [µg/mL] | MIC [12] [µg/mL] | MIC [13] [µg/mL] | MIC [14] [µg/mL] | MIC [15] [µg/mL]
CCCCn1c(-c2cc(-c3ccc(Cl)cc3Cl)nc(N)n2)nc2ccccc21 | 512 (≈ 1240 µM) | 512 (≈ 1240 µM) | 512 (≈ 1240 µM) | 16 (≈ 38.8 µM) | 512 (≈ 1240 µM) | 512 (≈ 1240 µM) | 128 (≈ 310 µM) | 512 (≈ 1240 µM) | 32 (≈ 77.6 µM) | 256 (≈ 621 µM) | 512 (≈ 1240 µM) | 32 (≈ 77.6 µM) | 64 (≈ 155 µM) | 32 (≈ 77.6 µM) | 512 (≈ 1240 µM)
CCCCCCCCn1c(-c2cc(-c3ccc(Cl)cc3Cl)nc(N)n2)nc2ccccc21 | 256 (≈ 547 µM) | 256 (≈ 547 µM) | 512 (≈ 1090 µM) | 32 (≈ 68.3 µM) | 4 (≈ 8.54 µM) | 512 (≈ 1090 µM) | 512 (≈ 1090 µM) | 512 (≈ 1090 µM) | 512 (≈ 1090 µM) | 512 (≈ 1090 µM) | 512 (≈ 1090 µM) | 512 (≈ 1090 µM) | 8 (≈ 17.1 µM) | 16 (≈ 34.2 µM) | 512 (≈ 1090 µM)
CCCCCCn1c(-c2cc(-c3ccc(C)cc3)nc(N)n2)nc2ccccc21 | 128 (≈ 332 µM) | 16 (≈ 41.5 µM) | 128 (≈ 332 µM) | 16 (≈ 41.5 µM) | 16 (≈ 41.5 µM) | 32 (≈ 83 µM) | 64 (≈ 166 µM) | 16 (≈ 41.5 µM) | 16 (≈ 41.5 µM) | 256 (≈ 664 µM) | 32 (≈ 83 µM) | 8 (≈ 20.8 µM) | 8 (≈ 20.8 µM) | 16 (≈ 41.5 µM) | 512 (≈ 1330 µM)
CCCCn1c(C(=O)/C=C/c2ccc(C)cc2)nc2ccccc21 | 32 (≈ 100 µM) | 64 (≈ 201 µM) | 128 (≈ 402 µM) | 32 (≈ 100 µM) | 512 (≈ 1610 µM) | 512 (≈ 1610 µM) | 16 (≈ 50.2 µM) | 128 (≈ 402 µM) | 128 (≈ 402 µM) | 128 (≈ 402 µM) | 16 (≈ 50.2 µM) | 128 (≈ 402 µM) | 512 (≈ 1610 µM) | 4 (≈ 12.6 µM) | 4 (≈ 12.6 µM)
CCCCCCCCn1c(-c2cc(-c3ccc(C)cc3)nc(N)n2)nc2ccccc21 | 512 (≈ 1240 µM) | 512 (≈ 1240 µM) | 512 (≈ 1240 µM) | 16 (≈ 38.7 µM) | 512 (≈ 1240 µM) | 8 (≈ 19.3 µM) | 512 (≈ 1240 µM) | 512 (≈ 1240 µM) | 128 (≈ 310 µM) | 512 (≈ 1240 µM) | 512 (≈ 1240 µM) | 512 (≈ 1240 µM) | 16 (≈ 38.7 µM) | 128 (≈ 310 µM) | 512 (≈ 1240 µM)
CCCCn1c(C(=O)/C=C/c2ccc(Cl)cc2Cl)nc2ccccc21 | 512 (≈ 1370 µM) | 8 (≈ 21.4 µM) | 64 (≈ 171 µM) | 512 (≈ 1370 µM) | 512 (≈ 1370 µM) | 512 (≈ 1370 µM) | 512 (≈ 1370 µM) | 512 (≈ 1370 µM) | 256 (≈ 686 µM) | 16 (≈ 42.9 µM) | 256 (≈ 686 µM) | 128 (≈ 343 µM) | 512 (≈ 1370 µM) | 16 (≈ 42.9 µM) | 512 (≈ 1370 µM)
CCCCCCn1c(C(=O)/C=C/c2ccc(F)cc2)nc2ccccc21 | 512 (≈ 1460 µM) | 512 (≈ 1460 µM) | 256 (≈ 731 µM) | 16 (≈ 45.7 µM) | 64 (≈ 183 µM) | 32 (≈ 91.3 µM) | 512 (≈ 1460 µM) | 512 (≈ 1460 µM) | 512 (≈ 1460 µM) | 256 (≈ 731 µM) | 256 (≈ 731 µM) | 512 (≈ 1460 µM) | 512 (≈ 1460 µM) | 512 (≈ 1460 µM) | 16 (≈ 45.7 µM)
CCCCn1c(C(=O)/C=C/c2ccc(F)cc2)nc2ccccc21 | 4 (≈ 12.4 µM) | 8 (≈ 24.8 µM) | 4 (≈ 12.4 µM) | 8 (≈ 24.8 µM) | 512 (≈ 1590 µM) | 64 (≈ 199 µM) | 0.5 (≈ 1.55 µM) | 8 (≈ 24.8 µM) | 16 (≈ 49.6 µM) | 4 (≈ 12.4 µM) | 16 (≈ 49.6 µM) | 64 (≈ 199 µM) | 16 (≈ 49.6 µM) | 512 (≈ 1590 µM) | 128 (≈ 397 µM)
CCCCCCCCn1c(C(=O)/C=C/c2ccc(Cl)cc2)nc2ccccc21 | 512 (≈ 1300 µM) | 512 (≈ 1300 µM) | 512 (≈ 1300 µM) | 512 (≈ 1300 µM) | 512 (≈ 1300 µM) | 8 (≈ 20.3 µM) | 512 (≈ 1300 µM) | 128 (≈ 324 µM) | 512 (≈ 1300 µM) | 512 (≈ 1300 µM) | 4 (≈ 10.1 µM) | 512 (≈ 1300 µM) | 512 (≈ 1300 µM) | 4 (≈ 10.1 µM) | 32 (≈ 81 µM)
